Values joined by “and” are separate entries in the source; they are usually repeats but may differ in a detail not shown here. Equal values may be shown once. Inconclusive results and toxic doses are left out. Cut-off read from the data, not from the text of the source: active = T/C of 150% or more; inactive = T/C below 125%.
System: L1210 leukemia ip in BDF1 mice, survival T/C
Test: NCI In Vivo Anticancer Drug Screen. Data for tumor model L1210 Leukemia (intraperitoneal) in B6D2F1 (BDF1) mice
Details: endpoint: mean survival time, higher = longer survival
Method in brief: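 Survival endpoint. Drug-treated group vs vehicle group, expressed as T divided by C. Tumor passaged by transplantation.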

Measured: T/C

Nc1ccc(OC(=O)Oc2ccc(N)cc2)cc1
inactive: dose: 5.0 mg/kg/injection, schedule: Q01DX Z (iv), vehicle: saline 101 % of control | dose: 6.25 mg/kg/injection, schedule: Q#A X Z (oral), vehicle: saline 106 % of control | dose: 10.0 mg/kg/injection, schedule: Q01DX Z (iv), vehicle: saline 101 % of control | dose: 12.5 mg/kg/injection, schedule: Q01DX Z (oral), vehicle: saline 104 % of control | dose: 12.5 mg/kg/injection, schedule: Q#A X Z (oral), vehicle: saline 108 % of control | dose: 16.0 mg/kg/injection, schedule: Q07DX003 (oral), vehicle: saline 103 % of control | dose: 20.0 mg/kg/injection, schedule: Q01DX Z (iv), vehicle: saline 100 % of control | dose: 25.0 mg/kg/injection, schedule: Q01DX Z (oral), vehicle: saline 104 % of control | dose: 25.0 mg/kg/injection, schedule: Q#A X Z (oral), vehicle: saline 112 % of control | dose: 31.0 mg/kg/injection, schedule: Q07DX003 (oral), vehicle: saline 98 % of control | dose: 37.0 mg/kg/injection, schedule: Q01DX Z (ip), vehicle: carboxymethylcellulose (CMC) 100 % of control | dose: 37.5 mg/kg/injection, schedule: Q01DX009 (ip), vehicle: other 101 % of control | dose: 37.5 mg/kg/injection, schedule: Q01DX017 (ip), vehicle: other 101 % of control | dose: 37.5 mg/kg/injection, schedule: Q#A X018 (ip), vehicle: other 97 % of control | dose: 38.0 mg/kg/injection, schedule: Q01DX Z (ip), vehicle: carboxymethylcellulose (CMC) 98 % of control | dose: 40.0 mg/kg/injection, schedule: Q01DX Z (iv), vehicle: saline 100 % of control | dose: 40.0 mg/kg/injection, schedule: Q#A X Z (ip), vehicle: saline 111 % of control | dose: 50.0 mg/kg/injection, schedule: Q01DX005 (ip), vehicle: saline 101 % of control | dose: 50.0 mg/kg/injection, schedule: Q01DX006 (iv), vehicle: saline 110 % of control | dose: 50.0 mg/kg/injection, schedule: Q01DX009 (ip), vehicle: saline 104 % of control | dose: 50.0 mg/kg/injection, schedule: Q01DX015 (ip), vehicle: other 115 % of control | dose: 50.0 mg/kg/injection, schedule: Q01DX Z (im), vehicle: saline 104 % of control | dose: 50.0 mg/kg/injection, schedule: Q01DX Z (oral), vehicle: saline 112 % of control | dose: 50.0 mg/kg/injection, schedule: Q01DX Z (sc), vehicle: saline 112 % of control | dose: 50.0 mg/kg/injection, schedule: Q## X003 (ip), vehicle: saline 102 % of control | dose: 50.0 mg/kg/injection, schedule: Q## X024 (ip), vehicle: saline 101 % of control | dose: 53.0 mg/kg/injection, schedule: Q01DX Z (ip), vehicle: carboxymethylcellulose (CMC) 89 % of control and 113 % of control | dose: 53.0 mg/kg/injection, schedule: Q01DX Z (ip), vehicle: saline 102 % of control | dose: 63.0 mg/kg/injection, schedule: Q07DX003 (oral), vehicle: saline 106 % of control | dose: 74.0 mg/kg/injection, schedule: Q01DX Z (ip), vehicle: carboxymethylcellulose (CMC) 113 % of control | dose: 75.0 mg/kg/injection, schedule: Q01DX009 (ip), vehicle: other 104 % of control | dose: 75.0 mg/kg/injection, schedule: Q01DX017 (ip), vehicle: other 104 % of control | dose: 75.0 mg/kg/injection, schedule: Q01DX Z (ip), vehicle: carboxymethylcellulose (CMC) 102 % of control | dose: 75.0 mg/kg/injection, schedule: Q#A X018 (ip), vehicle: other 118 % of control | dose: 80.0 mg/kg/injection, schedule: Q01DX012 (oral), vehicle: saline 94 % of control | dose: 80.0 mg/kg/injection, schedule: Q01DX Z (ip), vehicle: carboxymethylcellulose (CMC) 93 % of control | dose: 80.0 mg/kg/injection, schedule: Q01DX Z (ip), vehicle: saline 113 % of control | dose: 100.0 mg/kg/injection, schedule: Q01DX001 (ip), vehicle: saline 98 % of control | dose: 100.0 mg/kg/injection, schedule: Q01DX005 (ip), vehicle: saline 92 % of control | dose: 100.0 mg/kg/injection, schedule: Q01DX005 (oral), vehicle: saline 116 % of control | dose: 100.0 mg/kg/injection, schedule: Q01DX006 (iv), vehicle: saline 114 % of control | dose: 100.0 mg/kg/injection, schedule: Q01DX009 (oral), vehicle: saline 116 % of control | dose: 100.0 mg/kg/injection, schedule: Q01DX015 (ip), vehicle: clinical formulation 118 % of control | dose: 100.0 mg/kg/injection, schedule: Q## X003 (ip), vehicle: saline 106 % of control | dose: 100.0 mg/kg/injection, schedule: Q## X003 (oral), vehicle: saline 101 % of control | dose: 100.0 mg/kg/injection, schedule: Q## X008 (ip), vehicle: saline 101 % of control | dose: 120.0 mg/kg/injection, schedule: Q01DX012 (oral), vehicle: saline 105 % of control | dose: 120.0 mg/kg/injection, schedule: Q01DX Z (ip), vehicle: carboxymethylcellulose (CMC) 97 % of control | dose: 120.0 mg/kg/injection, schedule: Q01DX Z (ip), vehicle: saline 108 % of control and 117 % of control | dose: 125.0 mg/kg/injection, schedule: Q07DX003 (oral), vehicle: saline 106 % of control | dose: 135.0 mg/kg/injection, schedule: Q#A X Z (ip), vehicle: saline 102 % of control | dose: 149.0 mg/kg/injection, schedule: Q01DX Z (ip), vehicle: carboxymethylcellulose (CMC) 105 % of control | dose: 150.0 mg/kg/injection, schedule: Q01DX001 (ip), vehicle: other 109 % of control | dose: 150.0 mg/kg/injection, schedule: Q01DX Z (ip), vehicle: carboxymethylcellulose (CMC) 113 % of control | dose: 180.0 mg/kg/injection, schedule: Q01DX Z (ip), vehicle: carboxymethylcellulose (CMC) 98 % of control | dose: 180.0 mg/kg/injection, schedule: Q01DX Z (ip), vehicle: saline 105 % of control | dose: 180.0 mg/kg/injection, schedule: Q01DX Z (oral), vehicle: saline 110 % of control | dose: 200.0 mg/kg/injection, schedule: Q01DX001 (ip), vehicle: saline 110 % of control | dose: 200.0 mg/kg/injection, schedule: Q01DX005 (oral), vehicle: saline 110 % of control | dose: 200.0 mg/kg/injection, schedule: Q01DX008 (oral), vehicle: saline 93 % of control | dose: 200.0 mg/kg/injection, schedule: Q01DX015 (ip), vehicle: clinical formulation 108 % of control | dose: 200.0 mg/kg/injection, schedule: Q01DX015 (ip), vehicle: other 100 % of control | dose: 200.0 mg/kg/injection, schedule: Q## X003 (ip), vehicle: saline 98 % of control | dose: 200.0 mg/kg/injection, schedule: Q## X003 (oral), vehicle: saline 106 % of control | dose: 200.0 mg/kg/injection, schedule: Q## X008 (ip), vehicle: saline 104 % of control | dose: 200.0 mg/kg/injection, schedule: Q## X024 (ip), vehicle: saline 97 % of control | dose: 240.0 mg/kg/injection, schedule: Q03DX Z (ip), vehicle: saline 110 % of control | dose: 250.0 mg/kg/injection, schedule: Q01DX001 (oral), vehicle: saline 115 % of control | dose: 250.0 mg/kg/injection, schedule: Q03DX006 (oral), vehicle: saline 108 % of control | dose: 250.0 mg/kg/injection, schedule: Q07DX003 (oral), vehicle: saline 113 % of control | dose: 267.0 mg/kg/injection, schedule: Q## X024 (ip), vehicle: saline 106 % of control | dose: 267.0 mg/kg/injection, schedule: Q## X024 (oral), vehicle: saline 110 % of control | dose: 270.0 mg/kg/injection, schedule: Q01DX Z (ip), vehicle: carboxymethylcellulose (CMC) 101 % of control | dose: 270.0 mg/kg/injection, schedule: Q01DX Z (ip), vehicle: other 113 % of control | dose: 270.0 mg/kg/injection, schedule: Q01DX Z (ip), vehicle: saline 91 % of control | dose: 300.0 mg/kg/injection, schedule: Q01DX001 (ip), vehicle: other 103 % of control | dose: 360.0 mg/kg/injection, schedule: Q03DX Z (ip), vehicle: saline 110 % of control | dose: 400.0 mg/kg/injection, schedule: Q01DX001 (ip), vehicle: saline 97 % of control | dose: 400.0 mg/kg/injection, schedule: Q01DX006 (iv), vehicle: saline 118 % of control | dose: 400.0 mg/kg/injection, schedule: Q01DX008 (oral), vehicle: saline 92 % of control | dose: 400.0 mg/kg/injection, schedule: Q## X003 (ip), vehicle: saline 111 % of control | dose: 400.0 mg/kg/injection, schedule: Q## X003 (oral), vehicle: saline 105 % of control | dose: 400.0 mg/kg/injection, schedule: Q## X008 (ip), vehicle: saline 101 % of control | dose: 400.0 mg/kg/injection, schedule: Q## X024 (oral), vehicle: saline 102 % of control and 105 % of control | dose: 405.0 mg/kg/injection, schedule: Q01DX Z (ip), vehicle: other 116 % of control | dose: 500.0 mg/kg/injection, schedule: Q01DX001 (oral), vehicle: saline 110 % of control | dose: 500.0 mg/kg/injection, schedule: Q03DX006 (oral), vehicle: saline 115 % of control | dose: 500.0 mg/kg/injection, schedule: Q07DX003 (oral), vehicle: saline 111 % of control | dose: 540.0 mg/kg/injection, schedule: Q03DX Z (ip), vehicle: saline 115 % of control | dose: 560.0 mg/kg/injection, schedule: Q07DX Z (ip), vehicle: saline 110 % of control | dose: 600.0 mg/kg/injection, schedule: Q## X024 (oral), vehicle: saline 115 % of control | dose: 720.0 mg/kg/injection, schedule: Q01DX Z (oral), vehicle: saline 106 % of control | dose: 800.0 mg/kg/injection, schedule: Q01DX008 (oral), vehicle: saline 116 % of control | dose: 800.0 mg/kg/injection, schedule: Q## X003 (oral), vehicle: saline 102 % of control | dose: 1000.0 mg/kg/injection, schedule: Q01DX001 (oral), vehicle: saline 110 % of control | dose: 1000.0 mg/kg/injection, schedule: Q03DX006 (oral), vehicle: saline 114 % of control | dose: 2000.0 mg/kg/injection, schedule: Q01DX001 (oral), vehicle: saline 92 % of control

Source: PubChem BioAssay AID248 (DTP/NCI, 2004)
